According to PubChem BioAssay (NCI):
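Values below derive from 48-hour exposures of cells grown in 96-well plates, with endpoints linearly interpolated between the two concentrations bracketing the appropriate inhibition level. The concentration for 50% growth inhibition is given as GI50. TGI: total growth inhibition.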

Experiments:
Test in all cases: NCI tumour cell line growth inhibition, 48 h
[1] = system: OVCAR-5 ovarian
[2] = system: HCT-116 colon
[3] = system: MDA-MB-231 breast
[4] = system: UACC-257 melanoma
[5] = system: NCI-H226 lung
[6] = system: SK-MEL-5 melanoma
[7] = system: SF-539 CNS
[8] = system: MDA-MB-435
[9] = system: HOP-62 NSCLC
[10] = system: HS 578T breast

Compound	GI50 [1]	TGI [1]	GI50 [2]	TGI [2]	GI50 [3]	TGI [3]	GI50 [4]	TGI [4]	GI50 [5]	TGI [5]	GI50 [6]	TGI [6]	GI50 [7]	TGI [7]	GI50 [8]	TGI [8]	GI50 [9]	TGI [9]	GI50 [10]	TGI [10]
Cc1ccc(Sc2cc3c(oc2=O)-c2ccccc2OC3O)cc1 (stereo not drawn)	23.9 µM	49 µM	25.6 µM	59.4 µM	28.8 µM	71.2 µM	22.3 µM	43.8 µM	30 µM	75 µM	17.1 µM	32.9 µM	19.3 µM	33.8 µM	27.2 µM	54.6 µM	22.5 µM	44.7 µM	26.1 µM	61.7 µM
Oc1ccc(Cc2cc(Cl)cc(Cl)c2O)cc1Cl		38.9 µM		37.2 µM		34.3 µM		30.4 µM		40.2 µM		32.1 µM		34.3 µM		27.1 µM		37.3 µM		37.2 µM
CCN(Cc1c(Cl)cccc1Cl)c1ccc(CO)c(Cl)c1	< 0.0284 µM	0.24 µM	< 0.0379 µM	11.3 µM	13 µM	26.2 µM	< 0.0392 µM	0.211 µM	0.0224 µM	0.071 µM	2.86 µM	19.5 µM	15.1 µM	28.6 µM	9.22 µM	22.4 µM	2.15 µM	21.2 µM	15.8 µM	37.9 µM
Cc1cc(Nc2cc(N)ncn2)c(=O)n2c1C(=O)NC21CCCCC1	> 100 µM	> 100 µM	> 100 µM	> 100 µM	82 µM	> 100 µM	> 100 µM	> 100 µM	> 100 µM	> 100 µM	> 100 µM	> 100 µM	94.6 µM	> 100 µM	> 100 µM	> 100 µM	31.2 µM	> 100 µM	54.3 µM	> 100 µM
CC(=O)c1cc(O)c2ccccc2c1O	23.7 µM	43 µM	17.6 µM	34.5 µM	15.2 µM	36.2 µM	17.7 µM	34.1 µM	17.5 µM	33.2 µM	16.3 µM	30.2 µM	22.5 µM	40.6 µM	14.5 µM	30.7 µM	17.5 µM	41.4 µM	39.7 µM	> 100 µM
O=C1C(Cl)=C(Nc2cccc(C(F)(F)F)c2)C(=O)N1Cc1ccc(Cl)cc1	2.2 µM	23.5 µM	0.0705 µM	4.88 µM	0.207 µM	8.74 µM	6.59 µM	22.2 µM	< 0.0129 µM		0.621 µM	13.5 µM	0.128 µM	2.09 µM		4.46 µM	0.835 µM	17.4 µM	0.711 µM	33 µM
O=C(O)C(Oc1nc(=S)[nH]c(=S)[nH]1)(c1ccc(Cl)cc1)c1ccc(Cl)cc1		> 100 µM		> 100 µM		> 100 µM		> 100 µM		> 100 µM		> 100 µM		> 100 µM		> 100 µM		> 100 µM		> 100 µM
COc1cc(NC(=O)C2=C(N3CCOCC3)/C(=C/c3ccc(Cl)cc3)CC2)cc(OC)c1OC	> 100 µM	> 100 µM	28.5 µM	> 100 µM	26.5 µM	> 100 µM	> 100 µM	> 100 µM	34.3 µM	> 100 µM	> 100 µM	> 100 µM	36 µM	> 100 µM	> 100 µM	> 100 µM	4.66 µM	21.2 µM	3.97 µM	40.7 µM
Nc1ncc(-c2cccc(S(N)(=O)=O)c2)c2scc(-c3ccc(F)c(Cl)c3)c12	9.09 µM	> 22.2 µM	4.34 µM	8.29 µM	5.94 µM	> 25 µM	6.46 µM	17.2 µM	5.71 µM	15.1 µM	4 µM	7.46 µM	5.27 µM	13.2 µM	4.68 µM	10.1 µM	5.47 µM	12.6 µM	7.23 µM	22 µM
O=c1oc2c(C(F)(F)F)cccc2cc1-c1csc(Nc2ccc(OCCF)cc2)n1	0.231 µM	> 100 µM	0.032 µM	0.54 µM	0.0663 µM	> 35.9 µM	0.653 µM	> 100 µM	0.587 µM	72.3 µM	0.0658 µM	0.497 µM	0.0248 µM	0.07 µM	0.0324 µM	> 100 µM	0.0378 µM	> 36.8 µM	0.051 µM	> 69.4 µM
Cc1coc2c1C(OC(=O)C(C)C)C1(C)C(C)CCC(O)C1C2=O (stereo not drawn)		> 100 µM		> 100 µM		> 100 µM		> 100 µM		> 100 µM		> 100 µM		> 100 µM		> 100 µM		> 100 µM		> 100 µM
